% of control and IC50 data for seven compounds are collected here from ChEMBL document CHEMBL5465560, “Selectivity Literature for EUbOPEN Chemogenomic Library” (2024).

Where only a bound is given, the exact number is not on record here.

Test [1] addresses T1, Phosphorylase b kinase gamma catalytic chain, liver/testis isoform (Homo sapiens) (UniProt P15735).
T1 sequence (whole entry): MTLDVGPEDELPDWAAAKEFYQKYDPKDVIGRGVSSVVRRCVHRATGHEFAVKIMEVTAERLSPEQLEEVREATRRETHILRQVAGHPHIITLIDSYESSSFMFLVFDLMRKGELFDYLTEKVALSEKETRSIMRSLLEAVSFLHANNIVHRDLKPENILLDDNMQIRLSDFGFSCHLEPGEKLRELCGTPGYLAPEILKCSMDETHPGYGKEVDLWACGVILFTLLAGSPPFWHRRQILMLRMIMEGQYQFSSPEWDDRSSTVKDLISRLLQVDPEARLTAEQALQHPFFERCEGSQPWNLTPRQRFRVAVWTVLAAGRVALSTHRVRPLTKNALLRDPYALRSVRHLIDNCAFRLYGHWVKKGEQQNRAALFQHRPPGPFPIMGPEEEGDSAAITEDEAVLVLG
Particulars: at 10 µM.

Test [2] concerns the target T2, Serine/threonine-protein kinase STK11 (Homo sapiens) (UniProt Q15831).
T2 sequence (whole entry): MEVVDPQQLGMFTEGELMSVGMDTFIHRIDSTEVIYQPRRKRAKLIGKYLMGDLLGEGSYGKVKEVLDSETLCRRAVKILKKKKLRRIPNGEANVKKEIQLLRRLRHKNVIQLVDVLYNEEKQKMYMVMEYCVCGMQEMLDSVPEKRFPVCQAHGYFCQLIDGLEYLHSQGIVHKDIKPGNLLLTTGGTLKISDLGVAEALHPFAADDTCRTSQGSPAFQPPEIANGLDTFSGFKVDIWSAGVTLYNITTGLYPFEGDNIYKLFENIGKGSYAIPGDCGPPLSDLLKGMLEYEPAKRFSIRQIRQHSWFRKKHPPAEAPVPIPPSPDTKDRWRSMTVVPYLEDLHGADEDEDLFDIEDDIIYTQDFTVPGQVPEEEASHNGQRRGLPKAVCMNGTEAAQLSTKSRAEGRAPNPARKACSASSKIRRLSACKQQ
Put plainly: Selectivity interaction (KinomeScan (DiscoverX)) EUB0000666a STK11. Particulars: at 10 µM.

Test [3] deals with Receptor tyrosine-protein kinase erbB-4 (Homo sapiens, UniProt Q15303). Put plainly: Selectivity interaction (KinomeScan (DiscoverX)) EUB0001079a ERBB4. Particulars: at 1 µM.
Test [4] concerns the target T3, Serine/threonine-protein kinase 17B (Homo sapiens) (UniProt O94768).
T3 sequence (whole entry): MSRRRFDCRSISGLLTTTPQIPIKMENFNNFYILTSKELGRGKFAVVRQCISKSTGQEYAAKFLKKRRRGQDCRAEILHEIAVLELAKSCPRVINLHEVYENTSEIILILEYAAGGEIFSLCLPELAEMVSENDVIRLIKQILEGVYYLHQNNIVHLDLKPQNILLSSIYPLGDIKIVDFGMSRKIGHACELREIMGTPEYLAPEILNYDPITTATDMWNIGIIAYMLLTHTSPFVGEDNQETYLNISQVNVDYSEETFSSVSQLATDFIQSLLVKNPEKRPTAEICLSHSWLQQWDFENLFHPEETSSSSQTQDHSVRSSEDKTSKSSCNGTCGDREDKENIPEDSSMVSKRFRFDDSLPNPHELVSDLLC
Particulars: at 10 µM.

Test [5] addresses Cyclin-dependent kinase 5/CDK5 activator 1 (Homo sapiens, UniProt Q00535).
The target of test [6] is Vascular endothelial growth factor receptor 1 (Homo sapiens) (UniProt P17948). The experiment in a line: Selectivity interaction (ProQinase) EUB0000171b FLT1.
Test [7] deals with T4, Ephrin type-B receptor 3 (Homo sapiens) (UniProt P54753).
T4 sequence (whole entry): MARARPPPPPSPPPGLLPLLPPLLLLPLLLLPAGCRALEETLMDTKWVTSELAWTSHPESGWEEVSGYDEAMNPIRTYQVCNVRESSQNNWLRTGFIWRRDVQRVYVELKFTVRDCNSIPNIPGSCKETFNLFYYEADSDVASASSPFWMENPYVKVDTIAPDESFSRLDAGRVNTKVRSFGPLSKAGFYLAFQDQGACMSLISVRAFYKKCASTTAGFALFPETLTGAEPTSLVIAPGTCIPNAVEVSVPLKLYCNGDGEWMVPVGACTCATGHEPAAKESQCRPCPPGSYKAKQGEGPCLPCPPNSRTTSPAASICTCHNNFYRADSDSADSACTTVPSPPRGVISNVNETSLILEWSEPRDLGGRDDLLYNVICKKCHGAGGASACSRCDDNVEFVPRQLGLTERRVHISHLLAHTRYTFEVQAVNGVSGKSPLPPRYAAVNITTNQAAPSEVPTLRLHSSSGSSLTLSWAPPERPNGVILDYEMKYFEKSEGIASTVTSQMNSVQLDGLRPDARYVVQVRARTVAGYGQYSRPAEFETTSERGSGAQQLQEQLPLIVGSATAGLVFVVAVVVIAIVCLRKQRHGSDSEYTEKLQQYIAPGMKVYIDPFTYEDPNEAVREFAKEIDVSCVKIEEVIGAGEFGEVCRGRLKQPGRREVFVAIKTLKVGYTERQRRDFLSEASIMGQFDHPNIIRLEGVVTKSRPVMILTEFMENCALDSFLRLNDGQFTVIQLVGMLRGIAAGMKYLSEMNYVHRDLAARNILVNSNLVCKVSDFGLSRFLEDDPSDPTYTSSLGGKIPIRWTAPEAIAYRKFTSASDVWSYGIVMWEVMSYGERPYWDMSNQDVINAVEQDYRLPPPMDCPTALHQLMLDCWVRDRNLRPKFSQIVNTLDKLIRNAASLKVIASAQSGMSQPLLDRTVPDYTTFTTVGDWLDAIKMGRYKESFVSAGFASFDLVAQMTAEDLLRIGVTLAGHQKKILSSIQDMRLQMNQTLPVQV
The experiment in a line: Selectivity interaction (KinomeScan (DiscoverX)) EUB0000618a EPHB3. Particulars: at 10 µM.

Chain of Vascular endothelial growth factor receptor 1 (Homo sapiens) (P17948 whole entry): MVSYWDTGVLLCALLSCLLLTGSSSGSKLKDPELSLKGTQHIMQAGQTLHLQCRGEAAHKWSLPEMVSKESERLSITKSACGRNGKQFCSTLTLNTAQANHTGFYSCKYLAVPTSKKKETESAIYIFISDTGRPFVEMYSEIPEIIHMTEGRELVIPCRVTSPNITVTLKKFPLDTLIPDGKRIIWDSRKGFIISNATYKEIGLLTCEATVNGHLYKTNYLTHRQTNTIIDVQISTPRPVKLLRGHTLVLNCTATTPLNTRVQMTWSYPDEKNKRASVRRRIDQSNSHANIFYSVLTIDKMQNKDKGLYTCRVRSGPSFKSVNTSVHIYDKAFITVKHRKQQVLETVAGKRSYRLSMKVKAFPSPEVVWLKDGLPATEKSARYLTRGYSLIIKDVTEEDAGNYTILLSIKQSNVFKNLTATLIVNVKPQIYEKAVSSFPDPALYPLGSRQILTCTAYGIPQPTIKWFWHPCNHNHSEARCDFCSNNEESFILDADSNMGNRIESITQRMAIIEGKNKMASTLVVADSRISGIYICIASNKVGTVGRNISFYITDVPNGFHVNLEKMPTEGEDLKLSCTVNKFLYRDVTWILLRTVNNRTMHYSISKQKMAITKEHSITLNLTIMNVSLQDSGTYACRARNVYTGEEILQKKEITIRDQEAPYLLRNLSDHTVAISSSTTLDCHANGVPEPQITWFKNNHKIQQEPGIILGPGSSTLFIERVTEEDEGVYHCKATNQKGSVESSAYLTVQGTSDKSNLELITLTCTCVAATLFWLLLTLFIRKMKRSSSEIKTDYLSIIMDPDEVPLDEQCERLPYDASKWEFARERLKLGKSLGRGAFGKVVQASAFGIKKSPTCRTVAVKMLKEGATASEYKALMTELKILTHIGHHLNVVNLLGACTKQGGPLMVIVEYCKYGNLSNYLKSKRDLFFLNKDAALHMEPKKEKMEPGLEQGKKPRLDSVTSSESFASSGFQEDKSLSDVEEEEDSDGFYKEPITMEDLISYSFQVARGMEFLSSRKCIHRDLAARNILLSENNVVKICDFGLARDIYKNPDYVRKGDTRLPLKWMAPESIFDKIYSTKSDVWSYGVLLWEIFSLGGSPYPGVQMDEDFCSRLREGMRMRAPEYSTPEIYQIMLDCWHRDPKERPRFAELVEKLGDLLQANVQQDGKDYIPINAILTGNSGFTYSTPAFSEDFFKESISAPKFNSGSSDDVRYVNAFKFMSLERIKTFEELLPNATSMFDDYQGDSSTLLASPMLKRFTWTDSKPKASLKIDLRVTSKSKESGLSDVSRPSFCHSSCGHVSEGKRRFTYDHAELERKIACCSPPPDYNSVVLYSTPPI
Chain of Cyclin-dependent kinase 5/CDK5 activator 1 (Q00535 whole entry): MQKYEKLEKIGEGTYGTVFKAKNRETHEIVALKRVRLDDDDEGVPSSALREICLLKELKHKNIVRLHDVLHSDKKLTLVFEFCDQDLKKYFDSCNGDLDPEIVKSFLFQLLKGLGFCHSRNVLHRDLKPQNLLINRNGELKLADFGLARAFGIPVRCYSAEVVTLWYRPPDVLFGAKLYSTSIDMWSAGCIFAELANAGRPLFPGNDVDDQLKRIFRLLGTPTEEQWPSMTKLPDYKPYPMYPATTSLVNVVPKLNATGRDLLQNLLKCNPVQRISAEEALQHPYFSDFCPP
Chain of Cyclin-dependent kinase 5/CDK5 activator 1 (Q15078 whole entry, further chain): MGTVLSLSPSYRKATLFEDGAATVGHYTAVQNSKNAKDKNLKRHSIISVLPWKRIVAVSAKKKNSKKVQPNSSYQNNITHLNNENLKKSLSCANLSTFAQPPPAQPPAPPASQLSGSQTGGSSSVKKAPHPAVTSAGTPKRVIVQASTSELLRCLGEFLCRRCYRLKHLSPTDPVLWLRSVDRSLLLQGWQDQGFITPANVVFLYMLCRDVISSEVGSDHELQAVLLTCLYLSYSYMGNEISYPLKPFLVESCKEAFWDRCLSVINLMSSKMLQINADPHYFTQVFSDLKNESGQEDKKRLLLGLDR
Chain of Receptor tyrosine-protein kinase erbB-4 (Q15303 whole entry): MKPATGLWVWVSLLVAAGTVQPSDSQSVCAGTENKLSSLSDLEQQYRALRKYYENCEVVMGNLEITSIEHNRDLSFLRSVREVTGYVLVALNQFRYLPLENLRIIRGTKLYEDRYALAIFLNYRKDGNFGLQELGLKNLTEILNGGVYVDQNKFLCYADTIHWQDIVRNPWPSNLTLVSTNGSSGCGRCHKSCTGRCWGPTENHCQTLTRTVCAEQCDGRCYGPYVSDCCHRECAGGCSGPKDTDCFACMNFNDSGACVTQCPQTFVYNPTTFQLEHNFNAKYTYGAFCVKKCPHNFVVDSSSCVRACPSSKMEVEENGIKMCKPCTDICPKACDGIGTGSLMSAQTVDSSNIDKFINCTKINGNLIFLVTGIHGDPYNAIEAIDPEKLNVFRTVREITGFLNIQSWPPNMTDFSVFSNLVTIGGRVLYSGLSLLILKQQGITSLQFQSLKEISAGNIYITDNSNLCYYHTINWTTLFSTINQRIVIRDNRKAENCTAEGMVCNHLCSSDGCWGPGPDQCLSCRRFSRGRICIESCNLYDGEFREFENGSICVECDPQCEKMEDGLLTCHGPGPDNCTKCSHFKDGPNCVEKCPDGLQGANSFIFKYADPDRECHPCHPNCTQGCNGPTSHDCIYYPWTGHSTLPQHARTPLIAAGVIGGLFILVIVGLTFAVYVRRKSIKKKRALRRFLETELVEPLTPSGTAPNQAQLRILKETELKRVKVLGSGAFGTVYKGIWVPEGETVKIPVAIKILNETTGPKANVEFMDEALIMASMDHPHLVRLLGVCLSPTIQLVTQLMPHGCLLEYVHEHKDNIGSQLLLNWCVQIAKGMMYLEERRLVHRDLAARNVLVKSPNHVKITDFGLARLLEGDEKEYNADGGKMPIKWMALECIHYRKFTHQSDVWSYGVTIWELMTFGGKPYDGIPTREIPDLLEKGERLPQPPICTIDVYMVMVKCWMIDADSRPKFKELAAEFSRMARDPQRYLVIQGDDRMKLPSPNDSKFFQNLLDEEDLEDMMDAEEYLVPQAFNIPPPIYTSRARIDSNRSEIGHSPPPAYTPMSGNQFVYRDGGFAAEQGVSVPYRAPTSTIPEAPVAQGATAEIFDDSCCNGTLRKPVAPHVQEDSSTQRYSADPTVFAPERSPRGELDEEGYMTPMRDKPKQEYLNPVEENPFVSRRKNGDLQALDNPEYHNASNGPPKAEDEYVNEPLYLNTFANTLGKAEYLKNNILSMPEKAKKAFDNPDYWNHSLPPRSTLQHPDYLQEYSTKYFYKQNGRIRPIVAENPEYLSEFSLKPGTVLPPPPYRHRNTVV

`Cc1cc([C@@H](C)Nc2ccccc2C(=O)O)c2nc(N3CCOCC3)cc(=O)n2c1` [AZD-6482] yielded a % of control in test [1] of 100%.

In the case of `O=C(NOC[C@H](O)CO)c1ccc(F)c(F)c1Nc1ccc(I)cc1F`, the % of control in test [2] was 83%.

`Nc1cnc(N2CCc3cc(S(=O)(=O)Nc4c(F)cc(Cl)cc4F)cc(N4CCCC4=O)c32)nc1` [TP-020n] registered a % of control in test [3] of 100%.

In turn, `CCN(CC)CCCCNc1ncc2cc(-c3cc(OC)cc(OC)c3)c(NC(=O)NC(C)(C)C)nc2n1` returned a % of control in test [4] of 100%.

The IC50 is the point on the concentration scale where inhibition reaches its midpoint. Low values mean inhibition by little substance, high ones a need for much substance. As for `CCc1cccc(CC)c1NC(=O)c1nn(C)c2c1CCc1cnc(Nc3ccc(C(=O)NC4CCN(C)CC4)cc3OC(F)(F)F)nc1-2`, the IC50 in test [5] was over 10 µM.

For the compound `C=CC(=O)Nc1cccc(C(=O)Nc2ccc(Nc3cc(-c4[nH]c(SC)nc4C)ccn3)cc2)c1`, the figures for the % of control in test [6] (at 1 µM) and in test [6] (at 5 µM) were 84% and 66%, respectively.

Turning to `O[C@H]1CC[C@H](Nc2ncc3nc(Nc4c(F)cc(F)cc4F)n([C@H]4CCOC4)c3n2)CC1`, in test [7], the % of control came to 84%.
